Results published in PMC12491518, “Fabrication of cytotoxic mirror image nanopores” (Nature Communications, 2025).
Where a SMILES comes first, the peptide text is derived from it. [ ]: non-standard residue; d: D form.

Assays:
proteinase K = proteinase K (Parengyodontium album, UniProt P06873); assay: Proteinase K enzyme activity on peptides (SDS-PAGE); type: in vitro ADME; conditions: 0.5 mg/ml proteinase K, 63°C, 30 min, 10 mM phosphate buffer with 0.1% DDM pH 7.4; SDS-PAGE and bilayer insertion
Chain of proteinase K (P06873 106-384, species assumed): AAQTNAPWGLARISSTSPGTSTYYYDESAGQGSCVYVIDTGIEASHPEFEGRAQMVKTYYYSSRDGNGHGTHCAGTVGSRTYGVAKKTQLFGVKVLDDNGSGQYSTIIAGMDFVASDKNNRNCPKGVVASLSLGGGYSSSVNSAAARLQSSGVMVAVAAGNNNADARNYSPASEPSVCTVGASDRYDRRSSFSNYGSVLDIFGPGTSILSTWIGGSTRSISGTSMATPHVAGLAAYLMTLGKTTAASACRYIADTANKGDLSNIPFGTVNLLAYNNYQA
Description: applied through Ag/AgCl electrodes with agarose salt bridges. The pore formation in the […]
The 'reverse potential' (Vm) was calculated using the Goldman-Hodgkin-Katz equation1. […]
In this equation, R is the universal gas constant (8.314 J.K-1.mol-1), T is the temperature in Kelvin (K = °C + 273.15), F is Faraday's constant (96485 C.mol-1), PK+ is the membrane permeability for K+, PCl- is the relative membrane permeability for Cl-, [K+]cis is the concentration of K+ in the cis side, [K+]trans is the concentration of K+ in the trans side, [Cl-]cis is the concentration of Cl- in the cis side and [Cl-]trans is the concentration of Cl- in the trans side.
The reverse potential for DpPorA and DpPorA DE was calculated to be +21 mV and +40 mV, […]
c) Proteinase K enzyme activity on DpPorA and DpPorA DE pores
DpPorA peptides were prepared in 10 mM phosphate buffer with 0.1% DDM (pH 7.4). A final concentration of 0.5 mg/ml of freshly prepared proteinase K solution was added to the samples.
The reaction mixtures were heated at 63°C for 30 min. The proteolysis was terminated by adding 2 mM PMSF (phenylmethyl sulfonyl fluoride).2 The reaction products were loaded on a Mini-PROTEAN® TGX™ precast gel (Bio-Rad) with Protein Standard Marker (Bio-Rad) […]

[1] = GUV-based molecular transport assay; type: biochemical; conditions: 100 mM KCl 10 mM HEPES pH 7.4, mean ± S.D., N = 4 batches
Description: The giant unilamellar vesicles (GUVs) were constructed using gel-assisted swelling methodology and labeled with 0.05 mol% ATTO 550 DOPE[27],[44],[61]. Thin lipid films were spread on polyvinyl alcohol (PVA) coated glass slides using 30 µL of a 1 mg/mL solution of DOPC (Cis and Ent lipids prepared separately). […] The successful formation of vesicles was verified in real time by phase-contrast microscopy. To study the transport across DpPorA and DpPorA DE pores, the peptides were added to GUVs (at a concentration of 10–15 µM in 0.1% DDM) along with the fluorescent hydrophilic molecules (namely Alexa Fluor 350 Hydrazide: M.W-349 Da, Alexa Fluor 555 Hydrazide: M.W-1150 Da, ATTO 488 Dextran: M.W-3000 Da)[62]. The uptake of fluorescent molecules was monitored over 40 min, with time-lapse imaging at every minute for the first 10 min and then at every 5 min for the following 30 min, tracking either single vesicles or multiple vesicles within the same field of view. Later on, individual vesicles were further scanned and imaged to obtain datasets for statistical analysis. Control experiments were conducted under identical conditions using vesicles prepared with the same detergent concentration but without peptide incorporation. At each time point, the vesicle images were blank-subtracted, and the intensity inside the vesicle ( Iin ) was normalized against the intensity outside ( Iout )[27]. Complete permeabilization of the vesicles was marked by Iin/Iout ≥ 0.98 for peptide-reconstituted vesicles, while Iin/Iout ≥ 0.95 was considered as the cut-off for permeabilization in the control vesicles.

[2] = DOPC (Cis-DOPC) GUVs, peptide 10 to 15 µM in 0.1% DDM

SMILES	stability to proteinase K (proteinase K)	percentage of permeabilization, ATTO 488 Dextran [1, 2] [%]	percentage of permeabilization, Alexa Fluor 350 [1, 2] [%]	percentage of permeabilization, Alexa Fluor 555 [1, 2] [%]	percentage of permeabilization, ATTO 488 Dextran ([1]; Ent-DOPC GUVs, 0.1% DDM) [%]	percentage of permeabilization, Alexa Fluor 350 ([1]; Ent-DOPC GUVs, 0.1% DDM) [%]	percentage of permeabilization, Alexa Fluor 555 ([1]; Ent-DOPC GUVs, 0.1% DDM) [%]
CC[C@@H](C)[C@@H](NC(=O)[C@H](N)CCSC)C(=O)N[C@H](CC(=O)O)C(=O)N[C@H](CCC(N)=O)C(=O)N[C@@H](C(=O)N[C@@H](C(=O)N[C@H](CCC(=O)O)C(=O)N[C@@H](C(=O)N[C@H](Cc1ccccc1)C(=O)NCC(=O)N[C@H](CCC(N)=O)C(=O)N[C@H](CC(C)C)C(=O)NCC(=O)N[C@@H](C(=O)N[C@H](Cc1ccccc1)C(=O)N[C@H](CC(C)C)C(=O)NCC(=O)NCC(=O)N[C@H](Cc1ccccc1)C(=O)NCC(=O)N[C@H](CC(N)=O)C(=O)N[C@@H](C(=O)N[C@H](Cc1ccccc1)C(=O)N[C@H](CCCCN)C(=O)NCC(=O)N[C@H](CC(C)C)C(=O)N[C@H](CCCCN)C(=O)N[C@H](C)C(=O)N[C@@H](C(=O)N[C@@H](C(=O)N[C@H](C)C(=O)N[C@@H](C(=O)N[C@@H](C(=O)N[C@@H](C(=O)N[C@H](CCCCN)C(=O)N[C@H](Cc1c[nH]c2ccccc12)C(=O)N[C@@H](C(=O)N[C@H](C)C(=O)N[C@H](C)C(=O)N[C@H](CCCCN)C(=O)O)[C@H](C)O)C(C)C)[C@H](C)CC)[C@H](C)O)[C@H](C)CC)C(C)C)[C@H](C)CC)[C@H](C)O)[C@H](C)CC)[C@H](C)O)[C@H](C)CC [DpPorA DE] (H-[dM][dI][dD][dQ][dI][dT][dE][dI][dF]G[dQ][dL]G[dT][dF][dL]GG[dF]G[dN][dI][dF][dK]G[dL][dK][dA][dV][dI][dA][dT][dI][dV][dK][dW][dT][dA][dA][dK]-OH; N-terminus and C-terminus assumed)	protease-stable	53.8 ± 8	89.2 ± 3.7	71.3 ± 3.5			
CC[C@@H](C)[C@@H](NC(=O)[C@H](N)CCSC)C(=O)N[C@H](CC(=O)O)C(=O)N[C@H](CCC(N)=O)C(=O)N[C@@H](C(=O)N[C@@H](C(=O)N[C@H](CCC(=O)O)C(=O)N[C@@H](C(=O)N[C@H](Cc1ccccc1)C(=O)NCC(=O)N[C@H](CCC(N)=O)C(=O)N[C@H](CC(C)C)C(=O)NCC(=O)N[C@@H](C(=O)N[C@H](Cc1ccccc1)C(=O)N[C@H](CC(C)C)C(=O)NCC(=O)NCC(=O)N[C@H](Cc1ccccc1)C(=O)NCC(=O)N[C@H](CC(N)=O)C(=O)N[C@@H](C(=O)N[C@H](Cc1ccccc1)C(=O)N[C@H](CCCCN)C(=O)NCC(=O)N[C@H](CC(C)C)C(=O)N[C@H](CCCCN)C(=O)N[C@H](CC(=O)O)C(=O)N[C@@H](C(=O)N[C@@H](C(=O)N[C@H](CCC(=O)O)C(=O)N[C@@H](C(=O)N[C@@H](C(=O)N[C@@H](C(=O)N[C@H](CCCCN)C(=O)N[C@H](Cc1c[nH]c2ccccc12)C(=O)N[C@@H](C(=O)N[C@H](C)C(=O)N[C@H](C)C(=O)N[C@H](CCCCN)C(=O)O)[C@H](C)O)C(C)C)[C@H](C)CC)[C@H](C)O)[C@H](C)CC)C(C)C)[C@H](C)CC)[C@H](C)O)[C@H](C)CC)[C@H](C)O)[C@H](C)CC [DpPorA] (H-[dM][dI][dD][dQ][dI][dT][dE][dI][dF]G[dQ][dL]G[dT][dF][dL]GG[dF]G[dN][dI][dF][dK]G[dL][dK][dD][dV][dI][dE][dT][dI][dV][dK][dW][dT][dA][dA][dK]-OH; N-terminus and C-terminus assumed)	resistant to proteinase K action	73.0 ± 14.1	88.9±7.8	67.9± 10.4	72.70±14.61	95.13±3.54	70.38±4.93
